Data reported in patent publication US20230263783A1, “CANCER TREATMENT BY COMBINED INHIBITION OF POLO-LIKE KINASE AND MICROTUBULE POLYMERIZATION” (Massachusetts Institute of Technology, priority 2022, published 2023).
Like-named read-outs stand apart in the source and are kept apart here.

How the values were obtained:
BxPC-3 = settings: twice-weekly; cited from earlier work
A549 = settings: twice-weekly; cited from earlier work
[1] = cited from earlier work; for maximum tolerated dose: elderly patients with relapsed/refractory AML
[2] = tested on: C4-2 castrate resistant prostate cancer (CRPC) cells; test: Relative viability after drug dose matrix (CellTiter-Glo, Bliss Independence) in C4-2 cells; format: cell-based; settings: for effect of the combination of TH588 with a Plk1 inhibitor: each Plk1 inhibitor in combination with TH588, relative viability
Protocol: All cell lines were cultured in a humidified incubator at 37° C. and with 5% CO2, were maintained sub-confluent and used for no more than 20 passages. Media was supplemented with 10% fetal bovine serum (FBS), contained 2 mM glutamine and lacked antibiotics, unless otherwise noted. A549, BT-20, CCD-1112sk, CCD-18co, CFPAC1, HCT 116, HeLa, HT-29, HT55, MCF7, MDA-MB-157, MDA-MB-231, MDA-MB-415, MDA-MB-436, MDA-MB-453, MDA-MB-468, SW48, T98G, U-2 OS, U-87 MG, CAOV3, COV362, and JIMT1 cells were grown in DMEM; 22RV1, AU565, C4-2, CAL33, COL0205,HCC38, HCT-15, KYSE150, LNCaP, LOVO, NCI-H1299, PC-3, ZR-75-1, HCC1419, HCC1569, HCC1954, ZR7530, OVCAR-4, OVCAR8 cells were grown in RPMI 1640; HT1197, HT1376, J82, UMUC3 cells were grown in MEM; OV90, TOV122D, TOV21G cells were grown in 1:1 MCDB105:Medial99 15% FBS; 59M, OAW28, OAW42 cells were grown in Advanced DMEM 0.023 IU/ml insulin; ES2, SKOV3 cells were grown in McCoy's 5A; JHOS2, JHOS4 cells were grown in 1:1 DMEM:HamF12; HUVEC cells were grown in EBM with EGM™-2 BULLETKIT™
(§1) For dose response experiments and experiments that examine synergy as a measure of change in relative viability, cells were grown in 384-well plates in triplicate. The following day the cells were subjected to a drug dose matrix that consisted of increasing concentrations of a Plk inhibitor, increasing concentrations of a microtubule polymerization inhibitor, and all pairwise combinations. Drugs were dissolved in DMSO and diluted in the appropriate cell growth media while maintaining a constant final concentration of DMSO. After five days, relative viability was assessed using […]-GLO™ (Promega) Luminescent Cell Viability Assay according to the manufacturer's recommendations. Luminescence was measured using an […]™ M200 Pro plate reader (Tecan Group Ltd.). […] The dose response plots (for example FIG. 1A) show sensitivity to increasing concentrations of a microtubule polymerization inhibitor in the absence or presence of a constant amount of Plk inhibitor. Bars represent the standard error of the mean. The concentration of Plk inhibitor chosen to presented was based on a ˜20-30% reduction of viability when that drug was used at that dose in isolation. The entire amount of greater-than-additive response observed in the dose matrix is the integrated volume between the observed and expected surfaces generated by the response matrix and is also known as Bliss Volume. Bliss Volume synergy metrics are presented in FIG. 3 as the fractional change in volume between the expected and observed response surfaces.

HCT 116 xenografts = settings: cited from earlier work
mouse xenograft models = settings: 10 mg/kg and 20 mg/kg on days 1 and 28; cited from earlier work
[3] = tested on: Bel-7402, MCF-7, and MIA-PaCa cells; settings: 250 mg/kg; cited from earlier work
[4] = target: several tyrosine kinases and cyclin-dependent kinase 1; settings: read-out: IC50, tyrosine kinases and Cdk1; cited from earlier work
BT20 cells = settings: 200 mg/kg; cited from earlier work
Plk1 = Plk1 (Homo sapiens, UniProt P53350); settings: cited from earlier work
Plk1, sequence (P53350 whole entry): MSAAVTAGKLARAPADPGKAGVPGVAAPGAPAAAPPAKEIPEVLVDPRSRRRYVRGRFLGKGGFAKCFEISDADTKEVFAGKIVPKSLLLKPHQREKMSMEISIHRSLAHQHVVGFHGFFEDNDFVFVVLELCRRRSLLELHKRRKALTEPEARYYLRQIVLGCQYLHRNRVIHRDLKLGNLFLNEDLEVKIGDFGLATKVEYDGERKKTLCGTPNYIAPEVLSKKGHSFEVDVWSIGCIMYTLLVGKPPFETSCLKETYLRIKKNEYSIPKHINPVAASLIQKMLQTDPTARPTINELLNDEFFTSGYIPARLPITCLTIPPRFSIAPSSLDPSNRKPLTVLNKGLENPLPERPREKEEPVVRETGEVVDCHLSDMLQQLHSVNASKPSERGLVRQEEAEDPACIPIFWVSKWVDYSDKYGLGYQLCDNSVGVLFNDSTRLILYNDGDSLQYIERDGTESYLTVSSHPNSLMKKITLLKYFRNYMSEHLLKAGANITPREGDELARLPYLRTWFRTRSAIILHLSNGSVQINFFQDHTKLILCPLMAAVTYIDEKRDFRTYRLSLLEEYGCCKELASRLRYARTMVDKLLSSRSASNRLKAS

[5] = tested on: HT-29 human colorectal tumors; settings: cited from earlier work
C4-2 CRPC cells [6] = test: Flow cytometry for apoptotic cells (cleaved caspase-3); format: cell-based; settings: TH588 with Plk1 inhibitor BI2536, 0 to 48 hours, FIG. 1C
Protocol: (§2) C4-2 CRPC cells were plated in 6-well plates at a density of 300,000 cells per well and a total volume of 3 mls. The next day drugs were diluted in the appropriate growth media while maintaining a constant concentration of DMSO and added to the wells. After the indicated amount of time, cells were harvested by trypsinization. The media, trypsin and PBS wash were collected together to avoid loss of loosely attached or detached cells. Cells were fixed in 4% formaldehyde in PBS for 15 minutes, washed with PBS containing 1% bovine serum albumin (PBS-BSA), and then stored in methanol at −20° C. overnight. Cells were then washed twice in PBS-BSA 0.1% Tween-20, incubated with primary antibodies overnight at 4° C., washed with PBS-BSA 0.1% Tween-20 and incubated for 1 hour with fluorescent-dye conjugated secondary antibodies (diluted 1:200, Alexa Fluor, Molecular Probes) at room temperature for 1 hour. Primary antibodies included anti-phospho-serine 10 histone H3 (clone 3H10, Millipore) and anti-active caspase-3 (clone C92-605, BD Pharmingen). The fixed cells were then washed with PBS-BSA 0.1% Tween-20 and resuspended in PBS containing 1 μg/ml 4,6-diamidino-2-phenylindole (DAPI, Molecular Probes) to stain DNA and analyzed using a BD™ LSRII flow cytometer (Becton Dickinson) and the FLOWJO™ software package. Shown is the average of three replicates±standard error of the mean.

tubulin = test: Microtubule polymerization in vitro; format: biochemical
C4-2 CRPC cells [7] = test: Flow cytometry for mitotic cells (phospho-Ser10 Histone H3); format: cell-based; settings: TH588 with Plk1 inhibitor BI2536, 0 to 48 hours, FIG. 1B
Protocol: as §2

[8] = tested on: C4-2 CRPC xenograft tumors; test: Microwell tumor-implantable device, apoptotic index in xenograft tumors; format: in vivo, mice; settings: half-dose BI2536 with half-dose TH588 versus monotherapy wells, 24 hours after implantation, p<0.01, FIG. 2B
Protocol: C4-2 CRPC xenograft tumors were grown in four to six week old castrated male NCR nude mice. Five million C4-2 cells in 200 μl serum free media, mixed 1:1 with growth factor reduced […]® (Invitrogen) were injected into the hind flank subcutaneously using a 23 gauge needle. Tumors took four to eight weeks to grow. Microdose drug delivery devices were manufactured, implanted, and analyzed as described by Jonas, O., et al. Science Translational Medicine, 7(284): 284ra57 (2015). […] Tumors were excised 24 hours after device implantation, fixed in 10% formalin for 24 hours, and embedded in paraffin. Sections were stained with cleaved caspase-3 antibody (Cell Signaling Technologies, 9664) followed by detection with horseradish peroxidase conjugated secondary antibody and diaminobenzidine with hematoxylin used as a counterstain. Images were viewed using an EVOS® Cell Imaging System (Invitrogen) microscope, and scored using ImageJ in a blinded manner. Apoptotic index (Al) was calculated as the percentage of cells that were cleaved caspase-3-positive within […] of the reservoir-tissue interface.

[9] = tested on: cancer cell lines of various origin; test: Combination synergy (Bliss Volume) in cancer cell lines of various origin; format: cell-based; settings: TH588 with a Plk1 inhibitor; approximately thirty cell lines, in the majority of these; FIG. 3
Protocol: (§3) All cell lines were cultured in a humidified incubator at 37° C. and with 5% CO2, were maintained sub-confluent and used for no more than 20 passages. Media was supplemented with 10% fetal bovine serum (FBS), contained 2 mM glutamine and lacked antibiotics, unless otherwise noted. […]
(§4) For dose response experiments and experiments that examine synergy as a measure of change in relative viability, cells were grown in 384-well plates in triplicate. […] After five days, relative viability was assessed using […]-GLO™ (Promega) Luminescent Cell Viability Assay according to the manufacturer's recommendations. Luminescence was measured using an […]™ M200 Pro plate reader (Tecan Group Ltd.). […]

non-cancer cells = test: Combination synergy (Bliss Volume) in non-cancer cell lines; format: cell-based; settings: TH588 with a Plk1 inhibitor; FIG. 3
Protocol: as §3, §4

tumor cells = test: Tumor cell killing by other microtubule polymerization inhibitors with Plk1 inhibitors; format: cell-based; settings: in combination with Plk1 inhibitors
Protocol: as §1, with “Bliss Volume synergy metrics are presented in FIG. 3 as the fractional change in volume between the expected and observed response surfaces.” left out

cell mitosis = settings: read-out: EC50, inhibition of cell mitosis; cited from earlier work
[10] = tested on: Cdc25C-T96 phosphorylation; settings: direct readout of PLK1 inhibition; cited from earlier work
[11] = cited from earlier work

CC[C@@H]1C(=O)N(C)c2cnc(Nc3ccc(C(=O)NC4CCN(C)CC4)cc3OC)nc2N1C1CCCC1 [BI2536]
T/C, BxPC-3 model (BxPC-3): 5%
T/C, A549 model (A549): 14%
MTD suggested by other studies ([1]; Frost et al.): 50 to 70 mg
maximum tolerated dose ([1]; day 1 schedule): 350 mg
maximum tolerated dose ([1]; days 1+8 schedule): 200 mg
maximum tolerated dose (MTD) in combination with pemetrexed ([1]; intravenous, NSCLC, day 1 every 3 weeks): 300 mg
dose at which dose-limiting toxicities occurred ([1]; with 500 mg/m^2 pemetrexed, NSCLC, day 1 every 3 weeks, two DLT): 325 mg
effect of the combination of TH588 with a Plk1 inhibitor [2]: more than additive
T/C, HCT 116 xenografts (HCT 116 xenografts; 50 mg/kg once per week): 15%
T/C, HCT 116 xenografts (HCT 116 xenografts; 50 mg/kg twice per week): 0.3%

C[C@@H](Oc1cc(-n2cnc3ccc(CN4CCN(C)CC4)cc32)sc1C(N)=O)c1ccccc1C(F)(F)F [GSK461364]
final recommended phase II dose ([1]; intravenously, schedule A (days 1, 8, and 15 of 28-day cycle)): 225 mg
incidence of venous thrombotic emboli (VTE) ([1]; phase I, advanced solid tumors): 20%
effect of the combination of TH588 with a Plk1 inhibitor [2]: more than additive

COc1ccc(S(=O)(=O)Nc2ccccc2/C=C/c2cc[n+]([O-])cc2)cc1 [HMN-176]
antitumor activity in mouse xenograft models (mouse xenograft models): potent antitumor activity

COc1ccc(S(=O)(=O)N(C(C)=O)c2ccccc2/C=C/c2cc[n+]([O-])cc2)cc1 [HMN-214]
MTD ([1]; 5 consecutive days every 4 weeks, based on previous patient treatment load): 18 to 30 mg/m^2
doses at which DLTs were observed ([1]; 5 consecutive days every 4 weeks): 24 to 48 mg/m^2
maximum tolerated dose and recommended dose ([1]; continuous 21-day dosing every 28 days): 8.0 mg/m^2/d
dose with dose-limiting toxicities ([1]; continuous 21-day dosing every 28 days, myalgia/bone pain syndrome and hyperglycemia): 9.9 mg/m^2/d

COc1cc(OC)c(/C=C/S(=O)(=O)Cc2ccc(OC)c(NCC(=O)[O-])c2)c(OC)c1.[Na+] [ON 01910]
tumor growth in xenograft models [3]: inhibited tumor growth
MTD ([1]; i.v., days 1, 4, 8, 11, 15, and 18 in 28-day cycles, advanced solid tumors): 3,120 mg
IC50 [4]: 18 to 260 nM
tumor growth in xenograft model (BT20 cells): inhibition of tumor growth

COc1cc(C(=O)N[C@H]2CC[C@H](N3CCN(C)CC3)CC2)ccc1Nc1ncc2c(n1)N(C1CCCC1)CC1(CC1)C(=O)N2C [Plogosertib]
IC50 (Plk1): 3 nM

COc1cc(C(=O)NC2CCN(C)CC2)ccc1Nc1ncc2c(n1)N(C1CCCC1)CC(F)(F)C(=O)N2C [RO3280]
antitumor activity when dosed more frequently ([5]; dosed more frequently): complete tumor regression
tumor growth inhibition ([5]; once weekly at 40 mg/kg): 72%

Nc1nc(NC2CC2)cc(-c2cccc(Cl)c2Cl)n1 [TH588]
apoptotic cancer cell killing with the combination (C4-2 CRPC cells [6]): greater than additive
microtubule polymerization in vitro (tubulin): inhibits microtubule polymerization
mitotic arrest with the combination (C4-2 CRPC cells [7]): greater than additive
effect on tumor cell killing in vivo (cleaved caspase-3 positive cells) [8]: more-than-additive
effect of tumor cell killing using the combination treatment [9]: more than additive
effect of killing cancer cells by the combination of Plk1 inhibitors with TH588, versus each alone ([2]; C4-2 CRPC cells, TH588 with BI2536, five days, Bliss Independence model, FIG. 1A): more than additive
effect of killing by the drug combination in non-cancer cells (non-cancer cells): not more than additive

COC(=O)Nc1nc2ccc(C(=O)c3cccs3)cc2[nH]1 [nocodazole]
effect when used with Plk1 inhibitors in killing tumor cells (tumor cells): more-than-additive effect

CN1CCN(c2ccc(OC(F)(F)F)c(Nc3ncc4c(n3)-c3c(c(C(N)=O)nn3CCO)CC4)c2)CC1 [onvansertib]
effect of the combination of TH588 with a Plk1 inhibitor [2]: more than additive

CC[C@]1(O)C[C@@H]2C[N@@](CCc3c([nH]c4ccccc34)[C@@](C(=O)OC)(c3cc4c(cc3OC)N(C=O)[C@H]3[C@@](O)(C(=O)OC)[C@H](OC(C)=O)[C@]5(CC)C=CCN6CC[C@]43[C@@H]65)C2)C1 [vincristine]
effect when used with Plk1 inhibitors in killing tumor cells (tumor cells): more-than-additive effect

MLN0905
EC50 (cell mitosis): 9 nM
EC50 [10]: 29 nM
maximum tolerated dose ([11]; QD (daily) schedule): 6.25 mg/kg
maximum tolerated dose ([11]; QDx3/wk (3-days on/4-days off) schedule): 14.5 mg/kg
